Data on one compound can be found in patent US9187768B2, “Alcoholic fermentation yeast and method for producing ethanol using same” (NIPPON STEEL & SUMIKIN ENGINEERING CO., LTD., priority 2010, dated 2015).

The assay relates to general yeast. Put plainly: Ethanol fermentation by a general yeast with limonene added to YPD culture medium. In kind it is cell-based, Saccharomyces Cerevisiae. The conditions noted are these: 0.1% v/v of limonene added. An excerpt:
Generally, yeast is present in a sugar solution as fine solid particles and easily adsorbs oily substances. Therefore, the reason for the above-described experimental results may be that the limonene (in an oil form) added in a small amount (0.05% v/v) adsorbed to the yeast, causing fermentation inhibition. To remove limonene, which is a fermentation inhibitor, from a juice residue extract, limonene in a solid form, which accounts for 75% or larger of the total amount of limonene, must be removed, and limonene in a micelle form present as a light liquid (an oily substance) must also be removed. […] Therefore, fermentability tended to be unstable due to the influence of contamination etc. and it was difficult to maintain high fermentability over a long period of time.

Consider `C=C(C)[C@H]1CC=C(C)CC1` [limonene], for which the “rate of ethanol production” value is listed as “about 20%”.
